In ChEMBL document CHEMBL3232998, “Spiromastixones A-O, antibacterial chlorodepsidones from a deep-sea-derived Spiromastix sp. fungus” (J Nat Prod, 2014):
≈ marks a conversion by molar mass, not a printed value.

tested on: Staphylococcus aureus; test: Antibacterial activity against Staphylococcus aureus ATCC 29213 after 18 hrs by broth microdilution method; assay type: functional; details: ATCC 29213, 18 h

Row | SMILES | MIC
1 | CCCc1cc(O)cc2c1Oc1c(Cl)c(O)c(Cl)c(CCC)c1C(=O)O2 | 4 µg/mL (≈ 10.1 µM)

tested on: Bacillus thuringiensis; test: Antibacterial activity against Bacillus thuringiensis SCSIO BT01 after 18 hrs by broth microdilution method; assay type: functional; details: SCSIO BT01, 18 h

Row | SMILES | MIC
2 | CCCc1cc(O)cc2c1Oc1c(Cl)c(O)c(Cl)c(CCC)c1C(=O)O2 | 2 µg/mL (≈ 5.03 µM)

tested on: Bacillus subtilis; test: Antibacterial activity against Bacillus subtilis SCSIO BS01 after 18 hrs by broth microdilution method; assay type: functional; details: SCSIO BS01, 18 h

Row | SMILES | MIC
3 | CCCc1cc(O)cc2c1Oc1c(Cl)c(O)c(Cl)c(CCC)c1C(=O)O2 | 4 µg/mL (≈ 10.1 µM)

tested on: Escherichia coli; test: Antibacterial activity against Escherichia coli ATCC 25922 after 18 hrs by broth microdilution method; assay type: functional; details: ATCC 25922, 18 h

Row | SMILES | MIC
4 | CCCc1cc(O)cc2c1Oc1c(Cl)c(O)c(Cl)c(CCC)c1C(=O)O2 | > 128 µg/mL

tested on: Staphylococcus aureus; test: Antibacterial activity against methicillin-sensitive Staphylococcus aureus ATCC 29213 after 18 hrs by broth microdilution method; assay type: functional, organism-based; details: ATCC 29213, 18 h, read-out: IC50

Row | SMILES | MIC
5 | CCCc1cc(O)cc2c1Oc1c(Cl)c(O)c(Cl)c(CCC)c1C(=O)O2 | 64 µM (≈ 25.4 µg/mL)

tested on: Staphylococcus aureus; test: Antibacterial activity against methicillin-resistant Staphylococcus aureus ATCC 33591 after 18 hrs by broth microdilution method; assay type: functional, organism-based; details: ATCC 33591, 18 h, read-out: IC50

Row | SMILES | MIC
6 | CCCc1cc(O)cc2c1Oc1c(Cl)c(O)c(Cl)c(CCC)c1C(=O)O2 | 32 µM (≈ 12.7 µg/mL)

tested on: Staphylococcus aureus; test: Antibacterial activity against methicillin-sensitive Staphylococcus aureus 15 after 18 hrs by broth microdilution method; assay type: functional, organism-based; details: Staphylococcus aureus, 15, 18 h; read-out: IC50

Row | SMILES | MIC
7 | CCCc1cc(O)cc2c1Oc1c(Cl)c(O)c(Cl)c(CCC)c1C(=O)O2 | 64 µM (≈ 25.4 µg/mL)

tested on: Staphylococcus aureus; test: Antibacterial activity against methicillin-sensitive Staphylococcus aureus 12-28 after 18 hrs by broth microdilution method; assay type: functional, organism-based; details: 12-28, 18 h

Row | SMILES | IC50
8 | CCCc1cc(O)cc2c1Oc1c(Cl)c(O)c(Cl)c(CCC)c1C(=O)O2 | 128 µM

tested on: Staphylococcus aureus; test: Antibacterial activity against methicillin-resistant Staphylococcus aureus 12-33 after 18 hrs by broth microdilution method; assay type: functional, organism-based; details: 12-33, 18 h, read-out: IC50

Row | SMILES | MIC
9 | CCCc1cc(O)cc2c1Oc1c(Cl)c(O)c(Cl)c(CCC)c1C(=O)O2 | 128 µM (≈ 50.8 µg/mL)

tested on: Staphylococcus epidermidis; test: Antibacterial activity against methicillin-sensitive Staphylococcus epidermidis ATCC 12228 after 18 hrs by broth microdilution method; assay type: functional, organism-based; details: ATCC 12228, 18 h, read-out: IC50

Row | SMILES | MIC
10 | CCCc1cc(O)cc2c1Oc1c(Cl)c(O)c(Cl)c(CCC)c1C(=O)O2 | 32 µM (≈ 12.7 µg/mL)

tested on: Staphylococcus epidermidis; test: Antibacterial activity against methicillin-sensitive Staphylococcus epidermidis 12-6 after 18 hrs by broth microdilution method; assay type: functional, organism-based; details: 12-6, 18 h

Row | SMILES | IC50
11 | CCCc1cc(O)cc2c1Oc1c(Cl)c(O)c(Cl)c(CCC)c1C(=O)O2 | 32 µM

tested on: Staphylococcus epidermidis; test: Antibacterial activity against methicillin-resistant Staphylococcus epidermidis 12-8 after 18 hrs by broth microdilution method; assay type: functional, organism-based; details: 12-8, 18 h, read-out: IC50

Row | SMILES | MIC
12 | CCCc1cc(O)cc2c1Oc1c(Cl)c(O)c(Cl)c(CCC)c1C(=O)O2 | 64 µM (≈ 25.4 µg/mL)

tested on: Enterococcus faecalis; test: Antibacterial activity against vancomycin-sensitive Enterococcus faecalis ATCC 29212 after 18 hrs by broth microdilution method; assay type: functional, organism-based; details: ATCC 29212, 18 h, read-out: IC50

Row | SMILES | MIC
13 | CCCc1cc(O)cc2c1Oc1c(Cl)c(O)c(Cl)c(CCC)c1C(=O)O2 | > 256 µM

tested on: Enterococcus faecalis; test: Antibacterial activity against vancomycin-resistant Enterococcus faecalis ATCC 51299 after 18 hrs by broth microdilution method; assay type: functional, organism-based; details: ATCC 51299, 18 h, read-out: IC50

Row | SMILES | MIC
14 | CCCc1cc(O)cc2c1Oc1c(Cl)c(O)c(Cl)c(CCC)c1C(=O)O2 | > 256 µM

tested on: Enterococcus faecalis; test: Antibacterial activity against vancomycin-sensitive Enterococcus faecalis 12-5 after 18 hrs by broth microdilution method; assay type: functional, organism-based; details: 12-5, 18 h, read-out: IC50

Row | SMILES | MIC
15 | CCCc1cc(O)cc2c1Oc1c(Cl)c(O)c(Cl)c(CCC)c1C(=O)O2 | > 256 µM

tested on: Enterococcus faecalis; test: Antibacterial activity against vancomycin-resistant Enterococcus faecalis 09-9 after 18 hrs by broth microdilution method; assay type: functional, organism-based; details: 09-9, 18 h, read-out: IC50

Row | SMILES | MIC
16 | CCCc1cc(O)cc2c1Oc1c(Cl)c(O)c(Cl)c(CCC)c1C(=O)O2 | > 256 µM

tested on: Enterococcus faecium; test: Antibacterial activity against vancomycin-resistant Enterococcus faecium ATCC 700221 after 18 hrs by broth microdilution method; assay type: functional, organism-based; details: ATCC 700221, 18 h, read-out: IC50

Row | SMILES | MIC
17 | CCCc1cc(O)cc2c1Oc1c(Cl)c(O)c(Cl)c(CCC)c1C(=O)O2 | > 256 µM

tested on: Enterococcus faecium; test: Antibacterial activity against vancomycin-resistant Enterococcus faecium 12-1 after 18 hrs by broth microdilution method; assay type: functional, organism-based; details: 12-1, 18 h, read-out: IC50

Row | SMILES | MIC
18 | CCCc1cc(O)cc2c1Oc1c(Cl)c(O)c(Cl)c(CCC)c1C(=O)O2 | > 256 µM

tested on: Enterococcus faecium; test: Antibacterial activity against vancomycin-sensitive Enterococcus faecium 12-3 after 18 hrs by broth microdilution method; assay type: functional, organism-based; details: 12-3, 18 h, read-out: IC50

Row | SMILES | MIC
19 | CCCc1cc(O)cc2c1Oc1c(Cl)c(O)c(Cl)c(CCC)c1C(=O)O2 | > 256 µM

tested on: Escherichia coli; test: Antibacterial activity against extended spectrum beta-lactamase-deficient Escherichia coli ATCC 25922 after 18 hrs by broth microdilution method; assay type: functional, organism-based; details: ATCC 25922, 18 h, read-out: IC50

Row | SMILES | MIC
20 | CCCc1cc(O)cc2c1Oc1c(Cl)c(O)c(Cl)c(CCC)c1C(=O)O2 | > 256 µM

tested on: Escherichia coli; test: Antibacterial activity against extended spectrum beta-lactamase-deficient Escherichia coli 1515 after 18 hrs by broth microdilution method; assay type: functional, organism-based; details: Escherichia coli, 1515, 18 h

Row | SMILES | IC50
21 | CCCc1cc(O)cc2c1Oc1c(Cl)c(O)c(Cl)c(CCC)c1C(=O)O2 | > 256 µM

tested on: Escherichia coli; test: Antibacterial activity against extended spectrum beta-lactamase-deficient Escherichia coli 12-14 after 18 hrs by broth microdilution method; assay type: functional, organism-based; details: 12-14, 18 h, read-out: IC50

Row | SMILES | MIC
22 | CCCc1cc(O)cc2c1Oc1c(Cl)c(O)c(Cl)c(CCC)c1C(=O)O2 | > 256 µM

tested on: Escherichia coli; test: Antibacterial activity against extended spectrum beta-lactamase producing Escherichia coli 12-15 after 18 hrs by broth microdilution method; assay type: functional, organism-based; details: 12-15, 18 h, read-out: IC50

Row | SMILES | MIC
23 | CCCc1cc(O)cc2c1Oc1c(Cl)c(O)c(Cl)c(CCC)c1C(=O)O2 | > 256 µM

tested on: Klebsiella pneumoniae; test: Antibacterial activity against extended spectrum beta-lactamase producing Klebsiella pneumoniae ATCC 700603 after 18 hrs by broth microdilution method; assay type: functional, organism-based; details: ATCC 700603, 18 h

Row | SMILES | IC50
24 | CCCc1cc(O)cc2c1Oc1c(Cl)c(O)c(Cl)c(CCC)c1C(=O)O2 | > 256 µM

tested on: Klebsiella pneumoniae; test: Antibacterial activity against extended spectrum beta-lactamase-deficient Klebsiella pneumoniae 7 after 18 hrs by broth microdilution method; assay type: functional, organism-based; details: Klebsiella pneumoniae, 7, 18 h; read-out: IC50

Row | SMILES | MIC
25 | CCCc1cc(O)cc2c1Oc1c(Cl)c(O)c(Cl)c(CCC)c1C(=O)O2 | > 256 µM

tested on: Klebsiella pneumoniae; test: Antibacterial activity against NDM-1 producing Klebsiella pneumoniae ATCC BAA-2146 after 18 hrs by broth microdilution method; assay type: functional, organism-based; details: ATCC BAA-2146, 18 h, read-out: IC50

Row | SMILES | MIC
26 | CCCc1cc(O)cc2c1Oc1c(Cl)c(O)c(Cl)c(CCC)c1C(=O)O2 | > 256 µM

tested on: Klebsiella pneumoniae; test: Antibacterial activity against extended spectrum beta-lactamase-deficient Klebsiella pneumoniae 12-4 after 18 hrs by broth microdilution method; assay type: functional, organism-based; details: 12-4, 18 h

Row | SMILES | IC50
27 | CCCc1cc(O)cc2c1Oc1c(Cl)c(O)c(Cl)c(CCC)c1C(=O)O2 | > 256 µM

tested on: Klebsiella pneumoniae; test: Antibacterial activity against extended spectrum beta-lactamase producing Klebsiella pneumoniae 12-8 after 18 hrs by broth microdilution method; assay type: functional, organism-based; details: 12-8, 18 h, read-out: IC50

Row | SMILES | MIC
28 | CCCc1cc(O)cc2c1Oc1c(Cl)c(O)c(Cl)c(CCC)c1C(=O)O2 | > 256 µM
